Results: ChEMBL document CHEMBL1158975, “An antiviral sesquiterpene hydroquinone from the marine sponge Strongylophora hartmani” (J Nat Prod, 1991)
In brackets after ≈: the same amount, converted by molar mass.

Experiments:
[1] = tested on: P388; assay: Cytotoxicity against mouse P388 cells by microculture tetrazolium assay; format: functional, cell-based
[2] = tested on: Influenza A virus; assay: Antiviral activity against influenza virus A/Puerto Rico/8/34 H1N1 in MDCK cells assessed as reduction in virus-induced cytopathic effect after 3 days by neutral red uptake assay; format: functional, organism-based; conditions: A/Puerto Rico/8/1934(H1N1), 72 h
[3] = Therapeutic index, ratio of cytotoxicity against MDCK cells to IC50 for influenza virus A/Puerto Rico/8/34 H1N1; format: cell-based; conditions: dog, read-out: TI

SMILES | IC50 [1] [µg/mL] | IC50 [2] [µg/mL] | selectivity ratio [3]
COc1ccc(OC(C)=O)c2c1C[C@]1(C)[C@@H](C)CC[C@H]3C(C)(C)CCC[C@]31O2 | 23.8 (≈ 61.6 µM) | 5 (≈ 12.9 µM) | 100
COc1ccc(O)c2c1C[C@]1(C)[C@@H](C)CC[C@H]3C(C)(C)CCC[C@]31O2 [STRONGYLIN A] | 13 (≈ 37.7 µM) | 6.5 (≈ 18.9 µM) | 9
